The numbers were not newly measured in article PMC2962921 (Chembiochem : a European journal of chemical biology, 2008), which cites them from elsewhere.

In this series the target is Gαi1*GDP.

Where two headings read alike, the source gives them in different places.

For the sequence DKLYWWEFL, the Kd (commonly the equilibrium constant for the complex coming apart) (binding to heterotrimeric inhibitory G protein Gαi1*GDP) was 200 nM.

For MSQTKRLDDQLYWWEYL [R6A], the Kd (R6A peptide, competitor in the equilibrium competition) is 60 nM.
